One data set concerns telomerase. As to conditions: cited from earlier work.
Another data set deals with myelofibrosis. The settings on record: cited from earlier work.
For data set [1], the system named is cancer cell lines and human tumors. As to conditions: multitude of different cancer cell lines and human tumors; cited from earlier work.
The test system of data set [2] is template region of the RNA component of telomerase. As to conditions: cited from earlier work.
Data set [3] can be described thus: Solubility (dissolution) of the new crystalline polymorph used as substrate. The class given is physicochemical. The settings on record: polymorph from THF, 2-methyl-THF or DCM with triethylamine, heat/cool crystallization. The procedure: Crystalline solids were identified as a new polymorph of 3-palmitoyl-amido-1,2-propanediol using THF, 2-methyl-THF or DCM with triethylamine during a heat/cool induced crystallization. The heat/cool crystallization included solubilizing 3-palmitoyl-amido-1,2-propanediol in a solution of THF, and heating and maintaining the composition at 50° C. overnight. For 2-methyl-THF or DCM, the solution with palmitoyl-amido-1,2-propanediol was heated to 60° C. overnight to produce a solution. After cooling the samples back to 30° C., crystalline solids formed as slurries in the solutions of THF, 2-methyl-THF and DCM.

Data set [4] can be described thus: Screening of the solubility in various solvents and solvent mixtures. The class given is physicochemical. The procedure:
A screening of the solubility of 3-palmitoyl-amido-1,2-propanediol was conducted with various solvents and solvent mixtures. Tetrahydrofuran (THF), 2-methyl-THF, dichloromethane (DCM), N-methyl-2-pyrrolidone (NMP), dimethylacetamide (DMAc), toluene, 2-methylbutan-2-ol (tAmOH), isopropylacetate (iPrOAc), dimethylsulfoxide (DMSO) and dimethylformamide (DMF) were identified as solvents for use in the studies. The effect of triethylamine on the solubility was also evaluated.

Turning to Imetelstat, the telomerase activity entry in the data set with telomerase is on record as “inhibits telomerase activity”. Further, in the data set on myelofibrosis (patients with myelofibrosis in complete remission), the bone marrow fibrosis result is listed as “reversal of bone marrow fibrosis”. Besides, the clinical remission result in the data set with myelofibrosis (patients with myelofibrosis) is “complete clinical remissions in certain patients”. Besides, the cell proliferation result in data set [1] is on record as “effective against cell proliferation”. Also, the binding affinity entry in data set [2] was “high affinity”.

With `CCCCCCCCCCCCCCCC(=O)NCC(O)CO` (stereo not shown) [3-palmitoyl-amido-1,2-propanediol], the “solubility of the polymorph” value in data set [3] is “faster solubility”. In addition, the “effect of triethylamine on the solubility” value in data set [4] (in the screened solvents (THF, 2-methyl-THF, DCM, NMP, DMAc, toluene, tAmOH, iPrOAc, DMSO, DMF)) is listed as “small effect”. Further, the solubility entry in data set [4] (solvent dimethylacetamide (DMAc)), in data set [4] (solvent dimethylformamide (DMF)) and in data set [4] (solvent dimethylsulfoxide (DMSO)) was “moderate solubility” throughout.

Values taken from US11987540B2, “Crystalline solids of 3-palmitoyl-amido-1,2-propanediol and 3-palmitoyl-amido-2-hydroxy-1-dimethoxytriphenylmethylether-propane and methods of making and using the same” (Geron Corporation, priority 2019, dated 2024).
